Patent US9718828B2 (MERCK SHARP & DOHME CORP., priority 2011, dated 2017)
Structures can show the parent of a compound that is named as a salt. Where two headings read alike, the source gives them in different places.

Molecular target: hBTK (full-length BTK, 6HIS-tag cleaved) (Homo sapiens (Human), UniProt Q06187)
Assay: BTK enzymatic activity, LANCE TR-FRET assay (Assay Method C)
Type: biochemical
Settings: 50 pM hBTK, 25 μM ATP
[1] = LANCE TR-FRET, class 100-1000 is given as ≧100 nM-<1 μM, read-out: IC50 Btk activity values - Assay Method C
[2] = Table D, Assay Method C (LANCE TR-FRET), read-out: IC50 BTK activity value

Sequence of hBTK (full-length BTK, 6HIS-tag cleaved) (Q06187 whole entry): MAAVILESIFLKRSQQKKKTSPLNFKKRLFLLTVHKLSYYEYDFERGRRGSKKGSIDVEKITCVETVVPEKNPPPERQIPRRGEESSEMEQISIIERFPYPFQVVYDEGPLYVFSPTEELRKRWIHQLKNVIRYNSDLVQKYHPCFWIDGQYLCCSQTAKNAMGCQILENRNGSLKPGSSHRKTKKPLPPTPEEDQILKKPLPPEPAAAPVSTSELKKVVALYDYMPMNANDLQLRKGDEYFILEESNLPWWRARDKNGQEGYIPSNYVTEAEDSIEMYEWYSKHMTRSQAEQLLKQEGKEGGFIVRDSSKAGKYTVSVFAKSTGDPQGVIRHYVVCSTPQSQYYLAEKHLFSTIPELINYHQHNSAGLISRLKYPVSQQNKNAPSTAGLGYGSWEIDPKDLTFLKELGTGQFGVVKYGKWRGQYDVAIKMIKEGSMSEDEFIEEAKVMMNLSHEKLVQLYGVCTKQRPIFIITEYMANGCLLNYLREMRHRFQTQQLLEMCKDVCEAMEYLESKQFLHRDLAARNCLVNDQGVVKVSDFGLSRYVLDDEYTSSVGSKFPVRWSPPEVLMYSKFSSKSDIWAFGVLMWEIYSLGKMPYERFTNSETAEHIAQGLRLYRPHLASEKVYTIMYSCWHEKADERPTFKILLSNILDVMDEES

Row | IC50 [1] | IC50 [2] | SMILES
1 | < 10 nM | 0.892 nM | COCC(=O)N1CCO[C@@H](c2nc(-c3ccc(C(=O)Nc4cc(C(F)(F)F)ccn4)cc3)c3c(N)ncc(Cl)n23)C1 [Example 528, 4-{8-amino-5-chloro-3-[(2R)-4-(methoxyacetyl)morpholin-2-yl]imidazo[1,5-a]pyrazin-1-yl}-N-[4-(trifluoromethyl)pyridin-2-yl]benzamide]
2 | < 10 nM |  | CCc1ccnc(NC(=O)c2ccc(-c3nc([C@@H]4CCCN(C(=O)C5(C)COC5)C4)n4c(C)cnc(N)c34)cc2)c1 [Example 455, 4-(8-amino-5-methyl-3-{(3R)-1-[(3-methyloxetan-3-yl)carbonyl]piperidin-3-yl}imidazo[1,5-a]pyrazin-1-yl)-N-(4-ethylpyridin-2-yl)benzamide]
3 | < 10 nM |  | Nc1nccn2c([C@H]3CN[C@@H](CO)CO3)nc(-c3ccc(C(=O)Nc4cc(C(F)(F)F)ccn4)cc3)c12 [Example 546, 4-{8-amino-3-[(2R,5S)-5-(hydroxymethyl)morpholin-2-yl]imidazo[1,5-a]pyrazin-1-yl}-N-[4-(trifluoromethyl)pyridin-2-yl]benzamide]
4 | < 10 nM | 0.322 nM | C[C@H]1CC[C@@H](c2nc(-c3ccc(C(=O)Nc4cc(C(F)(F)F)ccn4)c(F)c3)c3c(N)nccn23)CN1C(=O)C1(C)COC1 [Example 476, 4-(8-amino-3-{(3R,6S)-6-methyl-1-[(3-methyloxetan-3-yl)carbonyl]piperidin-3-yl}imidazo[1,5-a]pyrazin-1-yl)-2-fluoro-N-[4-(trifluoromethyl)pyridin-2-yl]benzamide]
5 | < 10 nM |  | CC1(C(=O)N2CCO[C@@H](c3nc(-c4ccc(C(=O)Nc5cc(C(F)(F)F)ccn5)cc4)c4c(N)ncc(Cl)n34)C2)COC1 [Example 505, 4-(8-amino-5-chloro-3-{(2R)-4-[(3-methyloxetan-3-yl)carbonyl]morpholin-2-yl}imidazo[1,5-a]pyrazin-1-yl)-N-[4-(trifluoromethyl)pyridin-2-yl]benzamide]
6 | < 10 nM |  | Nc1ncnc2c1c(-c1ccc(C(=O)Nc3cc(C(F)(F)F)ccn3)cc1)nn2[C@@H]1CCCc2nn(CCO)cc21 [Example 562, 4-{4-amino-1-[(4R)-2-(2-hydroxyethyl)-4,5,6,7-tetrahydro-2H-indazol-4-yl]-1H-pyrazolo[3,4-d]pyrimidin-3-yl}-N-[4-(trifluoromethyl)pyridin-2-yl]benzamide, TFA salt]
7 | < 10 nM |  | COCCN1CCO[C@@H](c2nc(-c3ccc(C(=O)Nc4cc(C(F)(F)F)ccn4)cc3)c3c(N)ncc(Cl)n23)C1 [Example 542, 4-{8-amino-5-chloro-3-[(2R)-4-(2-methoxyethyl)morpholin-2-yl]imidazo[1,5-a]pyrazin-1-yl}-N-[4-(trifluoromethyl)pyridin-2-yl]benzamide, TFA salt]
8 | < 10 nM |  | Nc1ncc(Cl)n2c([C@H]3CN(CC(F)(F)F)CCO3)nc(-c3ccc(C(=O)Nc4cc(C(F)(F)F)ccn4)cc3)c12 [Example 526, 4-{8-amino-5-chloro-3-[(2R)-4-(2,2,2-trifluoroethyl)morpholin-2-yl]imidazo[1,5-a]pyrazin-1-yl}-N-[4-(trifluoromethyl)pyridin-2-yl]benzamide]
9 | < 10 nM |  | CCOCCC(=O)N1CCO[C@@H](c2nc(-c3ccc(C(=O)Nc4cc(C(F)(F)F)ccn4)cc3)c3c(N)nccn23)C1 [Example 503, 4-{8-amino-3-[(2R)-4-(3-ethoxypropanoyl)morpholin-2-yl]imidazo[1,5-a]pyrazin-1-yl}-N-[4-(trifluoromethyl)pyridin-2-yl]benzamide]
10 | < 10 nM |  | COCCN1CCO[C@@H](c2nc(-c3ccc(C(=O)Nc4cc(C(F)(F)F)ccn4)cc3)c3c(N)nccn23)C1 [Example 491, (R)-4-(8-amino-3-(4-(2-methoxyethyl)morpholin-2-yl)imidazo[1,5-a]pyrazin-1-yl)-N-(4-(trifluoromethyl)pyridin-2-yl)benzamide]
11 | < 10 nM |  | COCC(=O)N1CCC[C@@H](c2nc(-c3ccc(C(=O)Nc4cc(C(F)(F)F)ccn4)cc3F)c3c(N)nccn23)C1 [Example 575, 4-{8-amino-3-[(3R)-1-(methoxyacetyl)piperidin-3-yl]imidazo[1,5-a]pyrazin-1-yl}-3-fluoro-N-[4-(trifluoromethyl)pyridin-2-yl]benzamide, TFA salt]
12 | < 10 nM |  | COCC(=O)N1CCC[C@@H](c2nc(-c3ccc(C(=O)Nc4cc(C(F)(F)F)ccn4)cc3F)c3c(N)ncc(COC)n23)C1 [Example 452, 4-{8-amino-3-[(3R)-1-(methoxyacetyl)piperidin-3-yl]-5-(methoxymethyl)imidazo[1,5-a]pyrazin-1-yl}-3-fluoro-N-[4-(trifluoromethyl)pyridin-2-yl]benzamide]
13 | < 10 nM |  | Cc1cnc(N)c2c(-c3ccc(C(=O)Nc4cc(C(F)F)ccn4)cc3)nc([C@@H]3CCCN(C(=O)C4(C)COC4)C3)n12 [Example 458, 4-(8-amino-5-methyl-3-{(3R)-1-[(3-methyloxetan-3-yl)carbonyl]piperidin-3-yl}imidazo[1,5-a]pyrazin-1-yl)-N-[4-(difluoromethyl)pyridin-2-yl]benzamide]

The remaining lines, values behind:

Row | SMILES | IC50 [1] | IC50 [2]
14 | CN1C[C@@H](c2nc(-c3ccc(C(=O)Nc4cc(C(F)(F)F)ccn4)cc3)c3c(N)nccn23)CC[C@@H]1C(F)(F)F [Example 410, 4-{8-amino-3-[(3S,6R)-1-methyl-6-(trifluoromethyl)piperidin-3-yl]imidazo[1,5-a]pyrazin-1-yl}-N-[4-(trifluoromethyl)pyridin-2-yl]benzamide] | < 10 nM | 
15 | CCC(O)C(=O)N1CCC[C@@H](c2nc(-c3ccc(C(=O)Nc4cc(C(F)(F)F)ccn4)cc3)c3c(N)nccn23)C1 (stereo partly drawn) [Example 343, 4-{8-amino-3-[(3R)-1-(2-hydroxybutanoyl)piperidin-3-yl]imidazo[1,5-a]pyrazin-1-yl}-N-[4-(trifluoromethyl)pyridin-2-yl]benzamide] | < 10 nM | 
16 | C[C@H]1CC[C@@H](c2nc(-c3ccc(C(=O)Nc4cc(OC5CC5)ccn4)cc3)c3c(N)nccn23)CN1C(=O)C1(C)COC1 [Example 409, 4-(8-amino-3-{(3R,6S)-6-methyl-1-[(3-methyloxetan-3-yl)carbonyl]piperidin-3-yl}imidazo[1,5-a]pyrazin-1-yl)-N-[4-(cyclopropyloxy)pyridin-2-yl]benzamide] | < 10 nM | 
17 | COCC(=O)N1CCC[C@@H](c2nc(-c3ccc(C(=O)Nc4cc(C(F)(F)F)ccn4)cc3)c3c(N)nccn23)C1 [Example 340, 4-{8-amino-3-[(3R)-1-(methoxyacetyl)piperidin-3-yl]imidazo[1,5-a]pyrazin-1-yl}-N-[4-(trifluoromethyl)pyridin-2-yl]benzamide] | < 10 nM | 
18 | Cc1cnc(NC(=O)c2ccc(-c3nc([C@@H]4CCCN(C(=O)C5(C)COC5)C4)n4ccnc(N)c34)cc2)s1 [Example 366, 4-(8-amino-3-{(3R)-1-[(3-methyloxetan-3-yl)carbonyl]piperidin-3-yl}imidazo[1,5-a]pyrazin-1-yl)-N-(5-methyl-1,3-thiazol-2-yl)benzamide] | < 10 nM | 
19 | CC1(C(=O)N2CCC[C@@H](c3nc(-c4ccc(C(=O)Nc5ccc(Cl)cn5)cc4)c4c(N)nccn34)C2)COC1 [Example 358, 4-(8-amino-3-{(3R)-1-[(3-methyloxetan-3-yl)carbonyl]piperidin-3-yl}imidazo[1,5-a]pyrazin-1-yl)-N-(5-chloropyridin-2-yl)benzamide] | < 10 nM | 
20 | Nc1nccc2c1c(-c1ccc(C(=O)Nc3cc(C(F)(F)F)ccn3)cc1)nn2[C@@H]1CCCN(C(=O)C2CC2)C1 [Example 384, 4-{4-amino-1-[(3R)-1-(cyclopropylcarbonyl)piperidin-3-yl]-1H-pyrazolo[4,3-c]pyridin-3-yl}-N-[4-(trifluoromethyl)pyridin-2-yl]benzamide] | < 10 nM | 
21 | COC(=O)N1C[C@@H](c2nc(-c3ccc(C(=O)Nc4cc(C(F)(F)F)ccn4)cc3)c3c(N)nccn23)CC[C@@H]1C(F)(F)F [Example 430, methyl (2R,5S)-5-[8-amino-1-(4-{[4-(trifluoromethyl)pyridin-2-yl]carbamoyl}phenyl)imidazo[1,5-a]pyrazin-3-yl]-2-(trifluoromethyl)piperidine-1-carboxylate] | < 10 nM | 
22 | C[C@H]1CC[C@@H](c2nc(-c3ccc(C(=O)Nc4cc(C(F)F)ccn4)cc3F)c3c(N)nccn23)CN1C(=O)C1(C)COC1 [Example 434, 4-(8-amino-3-{(3R,6S)-6-methyl-1-[(3-methyloxetan-3-yl)carbonyl]piperidin-3-yl}imidazo[1,5-a]pyrazin-1-yl)-N-[4-(difluoromethyl)pyridin-2-yl]-3-fluorobenzamide] | < 10 nM | 
23 | CC1(C(=O)N2CCC[C@@H](c3nc(-c4ccc(C(=O)Nc5cnsc5)cc4)c4c(N)nccn34)C2)COC1 [Example 370, 4-(8-amino-3-{(3R)-1-[(3-methyloxetan-3-yl)carbonyl]piperidin-3-yl}imidazo[1,5-a]pyrazin-1-yl)-N-isothiazol-4-ylbenzamide] | 10 to 100 nM | 
24 | COCCC(=O)N1C[C@H](c2nc(-c3ccc(C(=O)Nc4cc(C(F)(F)F)ccn4)c(F)c3)c3c(N)nccn23)CC[C@@H]1C [Example 392, 4-{8-amino-3-[(3R,6S)-1-(3-methoxypropanoyl)-6-methylpiperidin-3-yl]imidazo[1,5-a]pyrazin-1-yl}-2-fluoro-N-[4-(trifluoromethyl)pyridin-2-yl]benzamide] | < 10 nM | 
25 | COCc1cnc(N)c2c(-c3ccc(C(=O)Nc4cc(C(F)(F)F)ccn4)cc3)nc([C@@H]3CCCN(C(=O)C4(C)COC4)C3)n12 [Example 449, 4-[8-amino-5-(methoxymethyl)-3-{(3R)-1-[(3-methyloxetan-3-yl)carbonyl]piperidin-3-yl}imidazo[1,5-a]pyrazin-1-yl]-N-[4-(trifluoromethyl)pyridin-2-yl]benzamide] | < 10 nM | 0.656 nM
26 | CN(C)C(=O)N1C[C@@H](c2nc(-c3ccc(C(=O)Nc4cc(C(F)(F)F)ccn4)cc3)c3c(N)nccn23)CC[C@@H]1C(F)(F)F [Example 426, (2R,5S)-5-[8-amino-1-(4-{[4-(trifluoromethyl)pyridin-2-yl]carbamoyl}phenyl)imidazo[1,5-a]pyrazin-3-yl]-N,N-dimethyl-2-(trifluoromethyl)piperidine-1-carboxamide] | < 10 nM | 
